Assay results taken from ChEMBL document CHEMBL3425436, “Assessing the oral bioavailability of difluorosialic acid prodrugs, potent viral neuraminidase inhibitors, using a snapshot PK screening assay” (Bioorg Med Chem Lett, 2015).

How the values were obtained:
[1] = Tmax in CD1 mouse at 30 mg/kg, po; format: ADME, organism-based; parameters: dose 30 mg/kg, route oral; details: in vivo
[2] = Cmax in CD1 mouse at 30 mg/kg, po; format: ADME, organism-based; parameters: dose 30 mg/kg, route oral; details: in vivo
Mus musculus [3] = assay: AUC in CD1 mouse at 30 mg/kg, po; format: ADME, organism-based, Plasma; parameters: dose 30 mg/kg, route oral; details: in vivo
[4] = Oral bioavailability in CD1 mouse at 30 mg/kg; format: ADME, organism-based; details: in vivo
[5] = Total plasma concentration in CD1 mouse at 30 mg/kg, po measured at 60 mins by reversed-phase UPLC/MS analysis; format: ADME, organism-based; parameters: dose 30 mg/kg, route oral
[6] = Total plasma concentration in CD1 mouse at 50 mg/kg, po measured at 60 mins by reversed-phase UPLC/MS analysis; format: ADME, organism-based; parameters: dose 50 mg/kg, route oral
[7] = Total plasma concentration in CD1 mouse at 30 mg/kg, po measured at 20 mins by reversed-phase UPLC/MS analysis; format: ADME, organism-based; parameters: dose 30 mg/kg, route oral
Mus musculus [8] = assay: AUC in CD1 mouse at 10 mg/kg, iv; format: ADME, organism-based, Plasma; parameters: dose 10 mg/kg, route intravenous; details: in vivo
[9] = Total plasma concentration in CD1 mouse at 50 mg/kg, po measured at 20 mins by reversed-phase UPLC/MS analysis; format: ADME, organism-based; parameters: dose 50 mg/kg, route oral
[10] = Half life in CD1 mouse at 30 mg/kg, po; format: ADME, organism-based; parameters: dose 30 mg/kg, route oral; details: in vivo
Mus musculus [11] = assay: Total plasma concentration in CD1 mouse assessed as (2R,3R,4R,5R,6R)-5-acetamido-4-amino-2,3-difluoro-6-((1R,2R)-1,2,3-trihydroxypropyl)tetrahydro-2H-pyran-2-carboxylic acid at 30 mg/kg, po measured at 20 mins by reversed-phase UPLC/MS analysis; format: ADME, organism-based; parameters: dose 30 mg/kg, route oral; details: in vivo
Mus musculus [12] = assay: Total plasma concentration in CD1 mouse assessed as (2R,3R,4R,5R,6R)-5-acetamido-4-amino-2,3-difluoro-6-((1R,2R)-1,2,3-trihydroxypropyl)tetrahydro-2H-pyran-2-carboxylic acid at 30 mg/kg, po measured at 60 mins by reversed-phase UPLC/MS analysis; format: ADME, organism-based; parameters: dose 30 mg/kg, route oral; details: in vivo, 1 h
Mus musculus [13] = assay: Prodrug conversion in CD1 mouse assessed as formation of (2R,3R,4R,5R,6R)-5-acetamido-4-amino-2,3-difluoro-6-((1R,2R)-1,2,3-trihydroxypropyl)tetrahydro-2H-pyran-2-carboxylic acid at 30 mg/kg, po; format: ADME, organism-based; parameters: dose 30 mg/kg, route oral; details: in vivo

CC(=O)N[C@@H]1[C@@H](N)[C@@H](F)[C@](F)(C(=O)O)O[C@H]1[C@H](O)[C@H](O)CO
Tmax [1]: 20 min | Cmax [2]: 2.8 µM | AUC (Mus musculus [3]): 320 µmol·min | bioavailability [4]: 3.1% | concentration at 1 h [5]: 4.93 µM | concentration at 1 h [6]: 8.21 µM | concentration at 20 min [7]: 2.7 µM | AUC (Mus musculus [8]): 3394 µmol·min | concentration at 20 min [9]: 4.5 µM | half-life [10]: 196 min

COC(=O)[C@]1(F)O[C@@H]([C@H](O)[C@H]2COC(C)(C)O2)[C@H](NC(C)=O)[C@@H](N)[C@H]1F
concentration (Mus musculus [11]): 2.57 µM | concentration (Mus musculus [12]): 4.86 µM | Drug metabolism (Mus musculus [13]): metabolite_detected

CCOC(=O)C1=C[C@@H](OC(CC)CC)[C@H](NC(C)=O)[C@@H](N)C1 [OSELTAMIVIR]
Tmax [1]: 30 min | Cmax [2]: 13.5 µM | AUC (Mus musculus [3]): 1706 µmol·min | bioavailability [4]: 64.5% | concentration at 1 h [5]: 13.3 µM | concentration at 20 min [7]: 8.41 µM | half-life [10]: 74 min
